Values quoted from earlier work in US7514484B2, “Aqueous dispersion of polytetrafluoroethylene and process for its production” (Asahi Glass Company, Limited, priority 2005, dated 2009).
Where two headings read alike, the source gives them in different places.

[1] = additives of Table 3, value of the corresponding acid
[2] = carboxylic acid corresponding to the salt of formula (4)

| Compound | pKa [1] | pKa [2] |
| --- | --- | --- |
| CCCCCCCCCCCC(=O)O.N [(d), ammonium laurate] | 4.6 |  |
| O=C(O)C(F)c1ccccc1 (stereo not shown) [fluorophenyl acetic acid] |  | 4.3 |
| CCCCCCCCCCCC(=O)O [lauric acid] |  | 4.6 |
| ammonium fluorophenyl acetate [(f)] | 4.3 |  |
